Data on one molecule can be found in US20170121295A1, “POLYCYCLIC LPA1 ANTAGONIST AND USES THEREOF” (AMIRA PHARMACEUTICALS, INC., priority 2010, published 2017).

pIC50: −log10 of the molar value. Converted amounts (≈) assume the structure as drawn.

One data set addresses LPA5 (Homo sapiens, UniProt Q9H1C0). The data set can be described thus: LPA5 Calcium Flux Assay. The data set is classed as cell-based. The conditions noted are these: read-out: Ca Flux IC50 LPA5. A general note: Calcium flux is commonly read through the fluorescence of an indicator in the cells.
A short description of data set [1]: Solubility in a range of solvents (crystallisation experiments). The data set is classed as physicochemical. To be noted: organic solvents; water, cyclohexane, heptane unsuitable. How it is done: 20 mg of Compound 1 was weighed into a HPLC vial. 40 μL of ethanol was added and the vial was heated to reflux with a hot air gun. The solution was cooled to ambient temperature and the solids were filtered off. Crystalline Compound 1 (Pattern 1) was obtained as determined by XRPD. In the same manner as described from ethanol, the following solvents also provided crystalline Compound 1 (Pattern 1): methanol, 2-methoxyethanol, ethanol, 1-propanol, 2-propanol, 1-butanol, butyl acetate, acetone, methylethyl ketone, anisole, toluene. 5 Volumes (i.e. 100 μL) of the following solvents with heating also provided crystalline Compound 1 (Pattern 1): nitromethane, acetonitrile, ethyl acetate, cumene.
Compound 1 dissolved in 2 volumes (i.e. 40 μL) of the following solvents at ambient temperature: 1-4-dioxane, tetrahydrofuran. The vials were uncapped and allowed to slowly evaporate. This provided crystalline Compound 1 (Pattern 1).

The target of the next data set is T1, Human LPA3 (Homo sapiens, UniProt Q9UBY5).
T1 construct: The full-length cDNA fragment for human LPA3 was obtained by PCR from the vector
T1 sequence (Q9UBY5 1-353): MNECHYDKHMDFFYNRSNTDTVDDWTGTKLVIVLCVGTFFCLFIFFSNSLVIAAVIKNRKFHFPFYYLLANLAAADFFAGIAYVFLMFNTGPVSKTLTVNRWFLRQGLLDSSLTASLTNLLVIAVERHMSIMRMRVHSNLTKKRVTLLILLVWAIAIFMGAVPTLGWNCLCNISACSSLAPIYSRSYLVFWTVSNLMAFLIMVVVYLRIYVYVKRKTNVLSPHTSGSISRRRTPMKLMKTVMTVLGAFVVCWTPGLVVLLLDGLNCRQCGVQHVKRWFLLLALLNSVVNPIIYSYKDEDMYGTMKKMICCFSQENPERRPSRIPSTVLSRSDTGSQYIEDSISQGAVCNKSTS
The data set can be described thus: LPA3 Calcium Flux Assay. To be noted: human LPA3 expressing CHO cells, 10 nM LPA; read-out: Ca Flux IC50 LPA3. The data set is classed as cell-based. How it is done:
A vector containing the human LPA3 receptor cDNA was obtained from the Missouri S&T cDNA Resource Center (www.cdna.org). The full-length cDNA fragment for human LPA3 was obtained by PCR from the vector. The nucleotide sequence of the cloned human LPA3 was determined by sequencing and confirmed to be identical to the published human LPA3 sequence (NCBI accession number NM_012152). The cDNA was cloned into the pCDNA5/FRT expression plasmid and transfected in CHO cells using lipofectamine 2000 (Invitrogen Corp., USA). Clones stably expressing human LPA3 were selected using hygromycin and identified as cells that show Ca-influx in response to LPA.
Human LPA1 or LPA3 expressing CHO cells are seeded at 20,000-45,000 cells per well in a 96-well poly-D-lysine coated plate one or two days before the assay. Prior to the assay, the cells are washed once with PBS and then cultured in serum-free media overnight. On the day of the assay, a calcium indicator dye (Calcium 4, Molecular Devices) in assay buffer (HBSS with Ca^2+ and Mg^2+ and containing 20 mM Hepes and 0.3% fatty-acid free human serum albumin) is added to each well and incubation continued for 1 hour at 37° C. 10 μl of test compound in 2.5% DMSO are added to the cells and incubation continued at room temperature for 30 minutes. Cells are the stimulated by the addition of 10 nM LPA and intracellular Ca^2+ measured using the Flexstation 3 (Molecular Devices). IC50s are determined using Graphpad prism analysis of drug titration curves.

A short description of data set [2]: Thermodynamic aqueous solubility. The conditions noted are these: water, equilibrated at 25° C. for 24 hours. The data set is classed as physicochemical. The procedure:
Aqueous solubility was determined by suspending sufficient compound in water to give a maximum final concentration of ≧10 mg·ml−1 of the parent free-form of the compound. The suspension was equilibrated at 25° C. for 24 hours then the pH was measured. The suspension was then filtered through a glass fiber C filter into a 96 well plate unless stated otherwise. The filtrate was then diluted by a factor of 101. Quantification was by HPLC with reference to a standard solution of approximately 0.25 mg·ml^−1 in DMSO. Different volumes of the standard, diluted and undiluted sample solutions were injected. The solubility was calculated using the peak areas determined by integration of the peak found at the same retention time as the principal peak in the standard injection.
(§1) Analysis was performed on an Agilent HP1100 series system equipped with a diode array detector and using ChemStation software vB.02.01-SR1.

The nature of data set [3]: Solubility assessment at various pH levels (solubility profile). The conditions noted are these: 0.15M NaCl solution, saline or isotonic, thermodynamic from solid. The data set is classed as physicochemical. How it is done: For solubility assessment at various pH levels sufficient material to produce a maximum concentration of 10 mg·ml^−1 of API was treated with 0.15M NaCl solution and then the pH adjusted with HCl or NaOH solutions to achieve the desired pH levels. The suspensions were allowed to equilibrate for 2 hours and the pH measured and adjusted if necessary. Suspensions were then filtered and the amount of dissolved API quantified by HPLC against a standard reference solution.
as §1
The solubility of both the free acid and amorphous sodium salt was determined at a range of pH values.

Data set [4] relates to human A2058 melanoma cells. The data set can be described thus: LPA1 Chemotaxis Assay. The data set is classed as cell-based. The conditions noted are these: 100 nM LPA, read-out: IC50, LPA-driven chemotaxis. The procedure:
Chemotaxis of the A2058 human melanoma cells was measured using the Neuroprobe ChemoTx® System plates (8 μm pore size, 5.7 mm diameter sites). The filter sites were coated with 0.001% fibronectin (Sigma) in 20 mM Hepes, pH 7.4 and allowed to dry. A2058 cells were serum-starved for 24 hours, then harvested with Cell Stripper and resuspended in DMEM containing 0.1% fatty-acid-free bovine serum albumin (BSA) to a concentration of 1×10^6/ml. Cells were mixed with an equal volume of test compound (2×) in DMEM containing 0.1% fatty-acid-free BSA and incubated at 37° C. for 15 minutes. LPA (100 nM in DMEM containing 0.1% fatty-acid-free BSA) or vehicle was added to each well of the lower chamber and 50 μl of the cell suspension/test compound mix was applied to the upper portion of the ChemoTx plate. Plates were incubated at 37° C. for three hours and then the cells removed from the upper portion by rinsing with PBS and scraping. The filter was dried then stained with HEMA 3 Staining System (Fisher Scientific). The absorbance of the filter was read at 590 nm and IC50s were determined using Symyx Assay Explorer.

The term pIC50 denotes the IC50 on a negative log10 scale, so that one unit is a factor of ten.

Chain of LPA5 (Q9H1C0 whole entry, species assumed): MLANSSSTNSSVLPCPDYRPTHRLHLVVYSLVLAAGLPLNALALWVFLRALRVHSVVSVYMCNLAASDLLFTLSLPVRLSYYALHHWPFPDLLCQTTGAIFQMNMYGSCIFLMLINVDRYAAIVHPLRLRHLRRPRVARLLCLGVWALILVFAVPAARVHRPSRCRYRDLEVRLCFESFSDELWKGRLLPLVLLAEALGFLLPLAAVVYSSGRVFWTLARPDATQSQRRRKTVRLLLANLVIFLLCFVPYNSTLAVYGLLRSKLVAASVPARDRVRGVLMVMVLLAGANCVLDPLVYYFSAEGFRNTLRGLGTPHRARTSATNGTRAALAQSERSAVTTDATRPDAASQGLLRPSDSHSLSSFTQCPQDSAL

Take `Cc1noc(-c2ccc(-c3ccc(C4(C(=O)O)CC4)cc3)cc2)c1NC(=O)O[C@H](C)c1ccccc1` [Compound 1, 1-{4′-[3-methyl-4-((R)-1-phenyl-ethoxycarbonylamino)-isoxazol-5-yl]-biphenyl-4-yl}-cyclopropanecarboxylic acid]: the pIC50 was less than 6.00 at LPA5, less than 6.00 on Human LPA3 and more than 7.00 in data set [4]. The “solubility in a range of solvents” value in data set [1] is “good solubility in a range of solvents”. The solubility at 24 h in data set [2] (25 °C, thermodynamic from solid, read-out: Solubility (mg/ml, free form equivalent)) came to 0.028 mg/mL. Besides, the “Solubility (mg/ml, free form equivalent)” value in data set [2] (listed as free acid) is 0.031 mg/mL. Moreover, the solubility at 2 h in data set [3] (Target pH 3, pH adjusted with HCl or NaOH) was less than 1 µg/mL; in data set [3] (Target pH 4, pH adjusted with HCl or NaOH), less than 1 µg/mL; in data set [3] (Target pH 5, pH adjusted with HCl or NaOH) it was less than 1 µg/mL; in data set [3] (Target pH 6, pH adjusted with HCl or NaOH), less than 1 µg/mL; in data set [3] (Target pH 7, pH adjusted with HCl or NaOH) it was 3.3 µg/mL (≈ 6.84 µM); in data set [3] (Target pH 8, pH adjusted with HCl or NaOH) it was 35 µg/mL (≈ 72.5 µM). In addition, the solubility at 2 h in data set [3] (Target pH 9, pH adjusted with HCl or NaOH) turned out to be 930 µg/mL (≈ 1930 µM); in data set [3] (Target pH 11, pH adjusted with HCl or NaOH) it was 13000 µg/mL (≈ 26900 µM).
